Active and inactive are the calls of the source. No rule for the calls is given here.
Biological target: Ubiquitin carboxyl-terminal hydrolase 10 (Homo sapiens) (UniProt Q14694)
Experiment: primary hit verification, biochemical, ubiquitin-specific protease 10 deubiquitylase inhibitors, concentration-effect titration (AID 1645863);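 also: potency values describe inhibition of USP10 cleavage of a fluorogenic ubiquitin substrate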
Conditions: USP10 deubiquitinase enzymatic assay

Chain of Ubiquitin carboxyl-terminal hydrolase 10 (Homo sapiens) (Q14694 whole entry, looked up): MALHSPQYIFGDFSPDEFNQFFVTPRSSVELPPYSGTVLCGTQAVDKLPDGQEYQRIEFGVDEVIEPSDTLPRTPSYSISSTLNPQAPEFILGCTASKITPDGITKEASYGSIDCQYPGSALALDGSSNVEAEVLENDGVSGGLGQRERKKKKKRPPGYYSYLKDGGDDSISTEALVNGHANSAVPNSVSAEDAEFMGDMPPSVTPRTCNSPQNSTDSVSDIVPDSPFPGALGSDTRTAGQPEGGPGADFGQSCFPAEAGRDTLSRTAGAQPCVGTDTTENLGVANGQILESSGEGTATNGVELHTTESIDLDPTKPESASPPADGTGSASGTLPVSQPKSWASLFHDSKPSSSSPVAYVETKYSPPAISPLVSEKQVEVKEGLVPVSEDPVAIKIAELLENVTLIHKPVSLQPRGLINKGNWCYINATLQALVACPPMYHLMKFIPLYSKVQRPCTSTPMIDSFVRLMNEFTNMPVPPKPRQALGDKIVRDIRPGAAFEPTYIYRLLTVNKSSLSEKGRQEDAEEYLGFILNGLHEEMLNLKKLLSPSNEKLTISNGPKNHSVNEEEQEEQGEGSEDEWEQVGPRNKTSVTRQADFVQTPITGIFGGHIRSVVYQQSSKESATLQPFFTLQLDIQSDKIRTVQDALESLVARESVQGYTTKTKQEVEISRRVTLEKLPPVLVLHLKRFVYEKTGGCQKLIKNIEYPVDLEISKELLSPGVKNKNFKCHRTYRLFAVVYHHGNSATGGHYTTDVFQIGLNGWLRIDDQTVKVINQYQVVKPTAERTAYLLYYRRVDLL

In the case of O=C(Cn1c(=O)n(CCC(=O)NC2CCCC2)c(=O)c2ccccc21)NCc1ccccc1Cl, the IC50 is reported as > 40 µM (inactive).

With O=C(Cn1c(=O)c2sccc2n(Cc2ccc([N+](=O)[O-])cc2)c1=O)NCCc1ccccc1 the IC50 was > 40 µM (inactive).

For Cc1ccc(NC(=O)CSc2ccc(NC(=O)c3ccc(C(=O)O)cc3C(=O)O)cc2)c(C)c1, the IC50 was > 40 µM (inactive).

Cc1sc(NC(=O)c2ccc(S(=O)(=O)N(C)Cc3ccccc3)cc2)c(C(N)=O)c1C was tested, and the IC50 was > 40 µM (inactive).

In the case of O=C(COC(=O)c1cc2c(s1)CCC2)c1ccc2[nH]c(=O)[nH]c2c1, the IC50 is reported as > 40 µM (inactive).

With O=C(O)c1cccc(NC(=O)C(Sc2cccc(NC(=O)c3cccc(Cl)c3)c2)c2ccccc2)c1 (stereo unspecified) the IC50 was 9.91 µM.

Work on CC(=O)O[C@@H](C/C=C(\C)C(=O)O)[C@@H](C)[C@H]1C[C@H](OC(C)=O)[C@@]2(C)C3=CC[C@H]4C(C)(C)[C@H](O)CC[C@]4(C)C3=CC[C@]12C yielded an IC50 of 18 µM.

For CCCCNC(=O)C1Sc2nnc(-c3ccccc3)n2NC1c1ccccc1 (stereo unspecified), the IC50 was > 40 µM (inactive).

For CSc1nc2ncn(CC(=O)Nc3ccc(Br)cc3)c(=O)c2s1, the IC50 was > 40 µM (inactive).

In the case of c1ccc2sc(-c3csc(-c4ccc5c(c4)OCCO5)n3)nc2c1, the IC50 is reported as > 40 µM (inactive).

In the case of COc1ccc(Cl)cc1NC(=O)Cn1c(=O)n(CCC(=O)NC2CCCC2)c(=O)c2ccccc21, the IC50 is reported as > 40 µM (inactive).

In the case of CCc1noc(-c2ccn3c(CC(=O)Nc4ccccc4C)nnc3c2)n1, the IC50 is reported as 8 µM.

O=C(CCCCCn1c(=O)c2sccc2n(CC(=O)c2ccc(Cl)c(Cl)c2)c1=O)NCc1ccc2c(c1)OCO2 was tested, and the IC50 was 10.6 µM.

Work on CCn1cc2c(n1)c(=O)n(Cc1ccccc1)c(=O)n2CC(=O)Nc1ccc(C(C)C)cc1 yielded an IC50 of 15 µM.

For COc1c2nc3ccccc3oc-2cc(=O)c1OC, the IC50 was > 40 µM (inactive).

For NS(=O)(=O)c1ccc(CNC(=O)c2ccc(Cl)c(S(=O)(=O)Nc3cc(Cl)ccc3Cl)c2)cc1, the IC50 was 26.4 µM.

For O=C(Nc1cc(F)c2nc(N3CCCC3)ccc2c1)c1ccco1, the IC50 was > 40 µM (inactive).

For COc1ccc(S(=O)(=O)N2CCc3ccccc32)cc1C(=O)Nc1ccc2c(c1)NC(=O)C(C)O2 (stereo unspecified), the IC50 was > 40 µM (inactive).

For COc1ccc2[nH]c(=O)c(CN(C)C(=O)c3ccc([N+](=O)[O-])cc3)cc2c1, the IC50 was > 40 µM (inactive).

O=C(c1cccnc1)N1CCCC(Cc2cc(-c3ncc[nH]3)ncn2)C1 (stereo unspecified) was tested, and the IC50 was > 40 µM (inactive).

Cc1cccc(C(=O)Nc2cccc(SC(C(=O)Nc3ccc(Cl)c(C(=O)O)c3)c3ccccc3)c2)c1 (stereo unspecified) showed an IC50 of 7.42 µM.

In the case of CN1CCC(N2CCN(C(=O)C3CCCN(c4cnc5nccnc5c4)C3)CC2)CC1 (stereo unspecified), the IC50 is reported as > 40 µM (inactive).

CCOc1ccc(NS(=O)(=O)c2ccc(NC(=O)Nc3ccccc3)cc2)cc1 was tested, and the IC50 was > 40 µM (inactive).

COc1ccccc1NC(=O)c1nc(-c2cn(-c3cccc(F)c3)nn2)no1 showed an IC50 of 21.1 µM.

CCCCCC(=O)C(CCCC)c1oc(=O)c(CCCC)c(O)c1CCCC (stereo unspecified) was tested, and the IC50 was 31 µM.

CN1CCc2c(C#N)c(N3CCOCC3)nc(NCC3CCCO3)c2C1 (stereo unspecified) was tested, and the IC50 was > 40 µM (inactive).

With COc1ccc(-c2c(NC(=O)C3COc4ccccc4O3)n[nH]c2C)cc1OC (stereo unspecified) the IC50 was > 40 µM (inactive).

For O=C(C1=CSCCO1)N1CCc2ccccc2C1, the IC50 was > 40 µM (inactive).

COC(=O)c1ccc(C(=O)Nc2cc3ccccc3cc2NC(=O)c2ccc(C(=O)OC)cc2)cc1 was tested, and the IC50 was > 40 µM (inactive).

In the case of CC(C)CC(=O)Nc1cc(F)c2nc(N3CCOCC3)ccc2c1, the IC50 is reported as > 40 µM (inactive).

O=C(Nc1ccc(NC(=O)c2ccccc2O)cc1)Nc1ccc(OCc2ccccc2)cc1 was tested, and the IC50 was > 40 µM (inactive).

In the case of O=C(Cn1cnc(-c2noc(-c3ccc(F)cc3)n2)c1)Nc1ccccc1F, the IC50 is reported as > 40 µM (inactive).

With COc1ccc(NS(=O)(=O)c2cc(NC(=O)/C=C/c3ccco3)ccc2N2CCCC2)cc1 the IC50 was > 40 µM (inactive).

CN(C)c1ccc(S(=O)(=O)N2CCCCC2)cc1NC(=O)COc1ccccc1 was tested, and the IC50 was > 40 µM (inactive).

O=C(NCCc1nc2ccccc2n1CCCOc1ccccc1Cl)C1CCCCC1 showed an IC50 of 32.8 µM.

O=C(/C=C/c1ccc(Br)cc1)Nc1cnc2ccccc2c1 was tested, and the IC50 was 39.5 µM.

For COc1cc(NC(=O)c2ccc3c(c2)OCO3)ccc1-c1cc2ccccc2oc1=O, the IC50 was > 40 µM (inactive).

Work on COc1ccc([N+](=O)[O-])cc1NC(=O)COC(=O)c1ccc2[nH]c3c(c2c1)CCCC3 yielded an IC50 of 18.3 µM.

Compound Cc1nc(-c2ccc(Cl)cc2)oc1C(=O)Nc1ccc(Cl)cc1 has an IC50 of 38.1 µM.

Compound CCC/C=C\C#CC/C=C\CCCCCCCC(=O)O has an IC50 of 3.3 µM.

With Cc1cccc(COc2ccc(C3SCC(=O)Nc4n[nH]c(C)c43)cc2)c1 (stereo unspecified) the IC50 was > 40 µM (inactive).

For CC(=O)Nc1ccc(Cc2nc(-c3ccc4c(c3)nc(C)c(=O)n4C3CCCC3)no2)cc1, the IC50 was > 40 µM (inactive).

In the case of COc1cc(C2CC(=O)c3c([nH]c(C(=O)OCCOc4ccccc4)c3C)C2)cc(OC)c1OC (stereo unspecified), the IC50 is reported as > 40 µM (inactive).

For Cc1ccc(CNCc2cc3c(-c4ccc(F)cc4)nn(-c4ccccc4)c3[nH]c2=O)cc1, the IC50 was > 40 µM (inactive).

With COc1ccc(C(=O)COC(=O)c2cccc(NC(=O)c3ccc(Cl)cc3)c2)cc1 the IC50 was > 40 µM (inactive).

For COc1cccc(C2c3[nH]c4ccccc4c3C[C@@H]3C(=O)N(CC(O)c4ccccc4)CC(=O)N23)c1 (stereo partly specified), the IC50 was > 40 µM (inactive).

Cc1ccc2[nH]cc(S(=O)(=O)c3cc(F)cc(F)c3)c(=O)c2c1 was tested, and the IC50 was > 40 µM (inactive).

CCCn1cc(C(=O)N2CCC3(CC2)CC2(CO3)Nc3ccccc3-n3cccc32)c(C)n1 (stereo unspecified) was tested, and the IC50 was > 40 µM (inactive).

Compound CCOC(=O)c1cc2c(ccn2-c2ccc(F)cc2)n1CC(=O)Nc1ccc2c(c1)OCCO2 has an IC50 of 30.3 µM.

For Cn1nc(Cl)c(Cl)c1Oc1ccc(S(=O)(=O)Nc2ccc(Oc3ccc(C(F)(F)F)cn3)c(Cl)c2)cc1, the IC50 was 13 µM.

Cc1ccccc1-c1noc(-c2cn(Cc3ccc(NC(=O)Cc4ccccc4)cc3)cn2)n1 was tested, and the IC50 was > 40 µM (inactive).

With Cc1cccc(Cl)c1NC(=O)Nc1ccc(NC(=O)c2ccccc2O)cc1 the IC50 was 13.2 µM.

With C[C@@H]1CO[C@@H]2C3=C(C(=O)C=CC3=O)[C@H]3OC(=O)[C@@H]4CCC5[C@@H]1CCC52C34 (stereo partly specified) the IC50 was 18.5 µM.

With O=C(Nc1ccc(C(F)(F)F)cc1)C1CC(=O)N(c2ccc3c(c2)OCCO3)C1 (stereo unspecified) the IC50 was > 40 µM (inactive).

CC(C)(C)c1ccc(C2CC(=O)C3=C(C2)Nc2ccccc2N(C(=O)CCC(=O)O)C3c2cccc([N+](=O)[O-])c2)cc1 (stereo unspecified) was tested, and the IC50 was > 40 µM (inactive).

In the case of Cc1nnc(NC(=O)C2CCN(c3ccc(S(N)(=O)=O)cc3[N+](=O)[O-])CC2)o1, the IC50 is reported as 12.6 µM.

Compound COc1cc2c(=O)n(CCC(=O)NC3CCCC3)c(=O)n(CC(=O)Nc3cccc(Cl)c3)c2cc1OC has an IC50 of 36.1 µM.

With Fc1ccccc1-c1nnc(C2(c3ccc4c(c3)OCO4)CCOCC2)o1 the IC50 was > 40 µM (inactive).

With CS(=O)(=O)c1cccc(-c2nnc(NC(=O)c3ccc(Cc4ccccc4)cc3)o2)c1 the IC50 was > 40 µM (inactive).

In the case of COc1ccc(-c2ccc(SCC(=O)Nc3ccc(F)cc3)nn2)cc1OC, the IC50 is reported as > 40 µM (inactive).

In the case of O=C(/C=C/c1ccc(F)cc1)N1CCc2ccccc2C1, the IC50 is reported as > 40 µM (inactive).

With O=C1NC(=O)/C(=C/c2ccc(OC(=O)c3ccc(Cl)cc3Cl)cc2)N1 the IC50 was 22.1 µM.

With Cc1ccc(C(=O)c2cn(CC(=O)Nc3ccc(F)c(F)c3)c3ccc(F)cc3c2=O)cc1 the IC50 was > 40 µM (inactive).

Work on Nc1ccc2oc(-c3cccc(-c4nc5cc(N)ccc5o4)n3)nc2c1 yielded an IC50 of 26.6 µM.

For Cc1cc(NC(=O)c2cc(-c3cccnc3)n[nH]2)ccc1Br, the IC50 was 28.6 µM.

Compound CCOC(=O)N1CCN(C(=O)c2ccc(NCc3ccc(F)cc3)c(S(=O)(=O)Nc3cccc(C(F)(F)F)c3)c2)CC1 has an IC50 of 29.8 µM.

Work on COc1ccc(CC(=O)Nc2c(NCc3ccccc3)c3ccccc3oc2=O)cc1 yielded an IC50 of 38.4 µM.

With COc1c(C)c(C(O)C(C)O)c2[nH]c3ccc(CC=C(C)C)cc3c2c1O (stereo unspecified) the IC50 was > 40 µM (inactive).

Cc1nnc(-c2cc(S(=O)(=O)N3CCN(c4ccc(F)cc4)CC3)c[nH]2)o1 was tested, and the IC50 was > 40 µM (inactive).

O=C1Cc2ccccc2C(=O)N1Cc1cccc(Cl)c1 was tested, and the IC50 was 24.1 µM.

COc1cc(OC)cc(N2C(=O)N(CC(=O)c3ccc(Br)cc3)c3ccccc3S2(=O)=O)c1 was tested, and the IC50 was 13.8 µM.

With O=C(Nc1c2c(nn1-c1ccc([N+](=O)[O-])cc1)CSC2)c1c(F)cccc1F the IC50 was > 40 µM (inactive).

For Cc1cccc(N2CCN(C(=O)c3nc4cccnc4n(C)c3=O)CC2)c1C, the IC50 was > 40 µM (inactive).

COc1ccc(NC(=O)c2nnc(C(=O)NCc3ccccc3F)s2)cc1 was tested, and the IC50 was > 40 µM (inactive).

For Cc1nc(-c2ccccc2)sc1-c1nc(-c2ccccc2)ncc1S(=O)(=O)c1ccccc1, the IC50 was > 40 µM (inactive).

For Cn1c(O)c(C2=Nc3ccccc3SC(c3cccc(O)c3)C2)c(=O)[nH]c1=O (stereo unspecified), the IC50 was > 40 µM (inactive).

For Cn1c(COc2cccc3cccnc23)nnc1SCC(=O)c1ccc(Cl)cc1Cl, the IC50 was > 40 µM (inactive).

Compound COc1ccc(NC(=O)CC(=O)c2ccc([N+](=O)[O-])cc2)cc1S(=O)(=O)Nc1ccc(Cl)cc1 has an IC50 of 25.8 µM.

CCC(=O)Nc1nc2cc(NC(=O)Nc3cccc(C)c3)ccc2s1 was tested, and the IC50 was 18.8 µM.

O=c1oc2c3c(c(Cl)cc2c2c1CCCC2)OCN(Cc1ccccc1)C3 was tested, and the IC50 was > 40 µM (inactive).

Work on Cc1cccc(N2C(=O)/C(=C\c3cc(C#N)n(C)c3C)c3ccccc3C2=O)c1 yielded an IC50 of 34.1 µM.

O=C1CSC(c2ccc3c(c2)OCO3)c2c(n(C3CCCCCC3)[nH]c2=O)N1 (stereo unspecified) showed an IC50 of 36.8 µM.

For Cc1ccc2[nH]c3c(=O)n(Cc4ccc(N(C)C)cc4)cnc3c2c1, the IC50 was 19.5 µM.

For COc1cccc(C(=O)Nc2ccc(SC(C)C(=O)Nc3ccc(C(N)=O)cc3)cc2)c1 (stereo unspecified), the IC50 was 24.9 µM.

In the case of C/C(=C\Cc1c(O)cc(C)c(C=O)c1O)CC[C@@]1(C)[C@H](C)CCC(=O)[C@@H]1C, the IC50 is reported as > 40 µM (inactive).

For Cn1cc2cccc(NC(=O)c3ccc(F)cc3)c2n1, the IC50 was > 40 µM (inactive).

In the case of COc1cccc(-c2cc(C(=O)Nc3cc(C)n(Cc4ccc(Cl)cc4)n3)no2)c1, the IC50 is reported as > 40 µM (inactive).

Cc1c(-c2nn3c(-c4ccco4)nnc3s2)cccc1[N+](=O)[O-] was tested, and the IC50 was > 40 µM (inactive).

With CCOc1ccc(CC(=O)Nc2ccc(-c3cn4cccnc4n3)cc2)cc1 the IC50 was > 40 µM (inactive).

Compound O=C(Cn1c(=O)n(-c2ccc(CC(=O)NC3CCCC3)cc2)c(=O)c2ccccc21)Nc1ccccc1[N+](=O)[O-] has an IC50 of 19.9 µM.

Work on O=C(c1cc(Cl)c(Cl)[nH]1)c1cc(Cl)cc(Cl)c1O yielded an IC50 of 15.2 µM.

Source: PubChem BioAssay AID1645863 (Buhrlage Lab, Dana-Farber Cancer Institute and Novartis …, 2021)
